Test systems include HS 578T breast; T-47D breast; OVCAR-3 ovarian; U251 CNS; OVCAR-5 ovarian; NCI-H23 lung; SK-MEL-28 melanoma; A498 renal; HL-60(TB) leukemia; UACC-257 melanoma.
What all share (experiment): inhibition of tumour cell growth, NCI panel, 48 h

Values joined by “and” are separate entries in the source; they are usually repeats but may differ in a detail not shown here. Equal values may be shown once.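 Dose response: 5 concentrations. Exposure: 48 h. Format: 96-well plates. Endpoint: linear interpolation; highest concentration if not reached. GI50 marks 50% less growth. Definition used: TGI = concentration required for complete inhibition of growth.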

`O=C(O)C#Cc1ccc([N+](=O)[O-])cc1`: the TGI with HS 578T breast, with T-47D breast, in the assay on OVCAR-3 ovarian, in the assay with U251 CNS, with OVCAR-5 ovarian and in the assay with NCI-H23 lung was more than 100 µM in each case. Further, the TGI in the assay on SK-MEL-28 melanoma, with A498 renal, in the assay with HL-60(TB) leukemia and with UACC-257 melanoma was more than 100 µM throughout.
`COc1ccc(/C=C2\CCCC3=C2N=C2SC=NN2C3c2ccc(OC)c(OC)c2)cc1OC` (centres undefined): the GI50 with HS 578T breast was 28.2 µM; in the assay with T-47D breast, 5.21 µM; with OVCAR-3 ovarian, 4.62 µM; in the assay on U251 CNS, 22.7 µM; in the assay with OVCAR-5 ovarian, 47.7 µM; with NCI-H23 lung, 22.4 µM. Moreover, the GI50 was 19.3 µM with SK-MEL-28 melanoma, 2.76 µM in the assay on A498 renal, 22.2 µM with HL-60(TB) leukemia and 10.5 µM with UACC-257 melanoma. Besides, the TGI was more than 100 µM in the assay with HS 578T breast; more than 100 µM with T-47D breast; 75.4 µM in the assay with OVCAR-3 ovarian; more than 100 µM in the assay with U251 CNS; more than 100 µM in the assay on OVCAR-5 ovarian; more than 100 µM in the assay with NCI-H23 lung. For the same molecule, the TGI in the assay with SK-MEL-28 melanoma was more than 100 µM; in the assay with A498 renal, 40.8 µM; in the assay on HL-60(TB) leukemia, 78 µM; in the assay on UACC-257 melanoma it was more than 100 µM.
Turning to `COc1ccc2c(c1)N(CCC1CCCCN1C)c1ccccc1S2` (centres undefined), the TGI with HS 578T breast is 26.5 µM; in the assay on T-47D breast, 26.3 µM; in the assay with OVCAR-3 ovarian it was 31.4 µM; with U251 CNS, 23.8 µM; with OVCAR-5 ovarian, 31.2 µM; with NCI-H23 lung, 35.2 µM. The TGI is 14.2 µM in the assay with SK-MEL-28 melanoma, 23.8 µM in the assay with A498 renal, 24.8 µM in the assay with HL-60(TB) leukemia and 17.3 µM with UACC-257 melanoma.
As for `Nc1nn(C(=O)Nc2ccc(Cc3ccccc3)cc2)c2ccccc12`, the GI50 was 17.2 µM in the assay on HS 578T breast; 1.55 µM in the assay on T-47D breast; 6.23 µM in the assay on OVCAR-3 ovarian; 13.9 µM in the assay on U251 CNS; 31.3 µM in the assay with OVCAR-5 ovarian; 16.8 µM in the assay on NCI-H23 lung. Besides, the GI50 was 11.5 µM with SK-MEL-28 melanoma, 16.7 µM in the assay on A498 renal, 0.466 µM with HL-60(TB) leukemia and 10 µM in the assay on UACC-257 melanoma. The TGI in the assay on HS 578T breast was 71.8 µM; in the assay with T-47D breast, more than 100 µM; with OVCAR-3 ovarian it was 63.1 µM; in the assay on U251 CNS, 30.2 µM; with OVCAR-5 ovarian, more than 100 µM; with NCI-H23 lung, 83.5 µM. In addition, the TGI in the assay on SK-MEL-28 melanoma was more than 100 µM; in the assay on A498 renal, 31.5 µM; in the assay with HL-60(TB) leukemia it was 15.2 µM; in the assay on UACC-257 melanoma, 50.9 µM.
As for `COc1cc2c3c(n(CCCN4CCOCC4)c(=O)c2cc1OC)-c1cc2c(cc1C3=O)OCO2`, the GI50 in the assay on HS 578T breast is 71.3 µM; in the assay with T-47D breast, more than 50.8 µM; in the assay with OVCAR-3 ovarian, 15.6 µM; in the assay with U251 CNS, 3.56 µM; with OVCAR-5 ovarian, 67.5 µM; in the assay on NCI-H23 lung it was 1.97 µM. The GI50 was more than 76.9 µM in the assay on SK-MEL-28 melanoma, 7.53 µM in the assay on A498 renal, 3.57 µM in the assay with HL-60(TB) leukemia and more than 51.5 µM with UACC-257 melanoma. For the same molecule, the TGI in the assay with HS 578T breast was more than 100 µM; in the assay with T-47D breast, more than 100 µM; with OVCAR-3 ovarian, more than 50.7 µM; with U251 CNS, more than 91.6 µM; in the assay on OVCAR-5 ovarian, more than 100 µM; with NCI-H23 lung, 27.2 µM. Besides, the TGI is more than 100 µM with SK-MEL-28 melanoma, 54 µM with A498 renal, more than 47 µM with HL-60(TB) leukemia and more than 100 µM with UACC-257 melanoma.
For the molecule `COC(=O)C12OCC34C(CC5C(C)=CC(=O)C(O)C5(C)C3C(O)C1O)OC(=O)C(OC(=O)CC(C)C)C24` (centres undefined), the TGI was 0.000948 µM in the assay with HS 578T breast; 0.006 µM in the assay with T-47D breast; 0.00627 µM and < 0.0791 µM in the assay with A498 renal. In addition, the GI50 in the assay with OVCAR-3 ovarian was less than 0.0518 µM; in the assay with U251 CNS, less than 0.0342 µM; with OVCAR-5 ovarian, 0.0825 µM and 0.0586 µM; in the assay with NCI-H23 lung it was < 0.046 µM and 0.05 µM; in the assay with SK-MEL-28 melanoma, < 0.0352 µM and 0.05 µM; with A498 renal, less than 0.0575 µM. The GI50 in the assay with HL-60(TB) leukemia was < 0.0417 µM and 0.05 µM; in the assay on UACC-257 melanoma, 0.0788 µM and 0.05 µM.
On to `COC1(C)Cc2c(c(C)c(O)c3c2C(=O)C=C(Cl)C3=O)O1` (centres undefined), for which the TGI is more than 100 µM in the assay with HS 578T breast; 36.7 µM in the assay with T-47D breast; more than 72.8 µM in the assay with OVCAR-3 ovarian; more than 100 µM in the assay with U251 CNS; more than 100 µM in the assay on OVCAR-5 ovarian; more than 100 µM in the assay with NCI-H23 lung. Moreover, the TGI with SK-MEL-28 melanoma was more than 66.3 µM; in the assay on A498 renal, more than 100 µM; in the assay on HL-60(TB) leukemia it was 14.8 µM; in the assay on UACC-257 melanoma, more than 69.5 µM.
For `CCCNNC(=O)c1ccc(CNC(=O)/C=C/c2ccccc2)cc1`, the GI50 with HS 578T breast is 0.207 µM; with T-47D breast, 0.13 µM; in the assay with OVCAR-3 ovarian it was 0.246 µM; with U251 CNS it was 0.198 µM; with OVCAR-5 ovarian it was 0.104 µM; in the assay with NCI-H23 lung, 0.228 µM. Moreover, the GI50 in the assay with SK-MEL-28 melanoma was 0.146 µM; with A498 renal, 0.123 µM; in the assay with HL-60(TB) leukemia, 0.219 µM; in the assay with UACC-257 melanoma, 0.15 µM. Moreover, the TGI in the assay with HS 578T breast was more than 20.8 µM; in the assay on T-47D breast it was 0.715 µM; in the assay with OVCAR-3 ovarian, 1.8 µM; in the assay on U251 CNS, 1.71 µM; in the assay with NCI-H23 lung, more than 23.5 µM; in the assay with SK-MEL-28 melanoma, 0.857 µM. The TGI in the assay with A498 renal is 0.36 µM; in the assay on HL-60(TB) leukemia, more than 100 µM.
`O=C1C=CC(=O)N1CCCCCCCCCCN1C(=O)C=CC1=O`: the GI50 in the assay with HS 578T breast was 16.3 µM; in the assay with T-47D breast it was 15.3 µM; in the assay on OVCAR-3 ovarian, 4.1 µM; in the assay on U251 CNS it was 17 µM; in the assay with OVCAR-5 ovarian, 17.4 µM; with NCI-H23 lung it was 15.6 µM. The GI50 was 14.8 µM in the assay on SK-MEL-28 melanoma, 20 µM in the assay with A498 renal, 8.72 µM in the assay with HL-60(TB) leukemia and 11.5 µM in the assay with UACC-257 melanoma. The TGI in the assay with HS 578T breast came to 56.9 µM; in the assay on T-47D breast, 40.7 µM; in the assay on OVCAR-3 ovarian, 15.1 µM; with U251 CNS it was 37.8 µM; with OVCAR-5 ovarian it was 31.6 µM; in the assay with NCI-H23 lung, 31.6 µM. Also, the TGI in the assay with SK-MEL-28 melanoma stood at 30.9 µM; in the assay on A498 renal it was 49.7 µM; in the assay with HL-60(TB) leukemia, 31.4 µM; in the assay with UACC-257 melanoma it was 24.8 µM.
As to `C(#Cc1ccccc1C#Cc1ccccn1)c1ccc(OCCCCCCOc2ccc(C#Cc3ccccc3C#Cc3ccccn3)cc2)cc1`, the GI50 was 5.79 µM in the assay with HS 578T breast; 1.52 µM in the assay with T-47D breast; 2.31 µM in the assay with OVCAR-3 ovarian; 4.55 µM in the assay on U251 CNS; 5.93 µM with OVCAR-5 ovarian; 6.45 µM in the assay with NCI-H23 lung. Moreover, the GI50 was 6.18 µM in the assay with SK-MEL-28 melanoma, 5.93 µM in the assay with A498 renal, 0.108 µM in the assay on HL-60(TB) leukemia and 5.92 µM in the assay with UACC-257 melanoma. The TGI in the assay on HS 578T breast came out at 15.7 µM; in the assay on T-47D breast it was 14.1 µM; with OVCAR-3 ovarian, 9.16 µM; in the assay on U251 CNS, 10.9 µM; in the assay on OVCAR-5 ovarian, 13.8 µM; in the assay on NCI-H23 lung, 16.2 µM. In addition, the TGI in the assay with SK-MEL-28 melanoma came to 12.4 µM; in the assay with A498 renal it was 12.1 µM; in the assay with HL-60(TB) leukemia, 1.44 µM; with UACC-257 melanoma, 12.7 µM.
Take `Cc1cc(Cl)ccc1Nc1nc(C(F)(F)F)ccc1C(=O)N/N=C/c1ccc(F)cc1`: the GI50 in the assay on HS 578T breast is 2.23 µM; in the assay with T-47D breast it was 1.6 µM; in the assay on OVCAR-3 ovarian, 0.491 µM; in the assay on U251 CNS, 1.52 µM; with OVCAR-5 ovarian it was 2.45 µM; in the assay on NCI-H23 lung, 2.57 µM. Moreover, the GI50 is 2.01 µM in the assay with SK-MEL-28 melanoma, 1.48 µM in the assay with A498 renal, 1.77 µM in the assay with HL-60(TB) leukemia and 1.33 µM in the assay with UACC-257 melanoma. For the same molecule, the TGI in the assay on HS 578T breast turned out to be 11.7 µM; with T-47D breast, 7.13 µM; with OVCAR-3 ovarian, 2.24 µM; with U251 CNS, 10.6 µM; with OVCAR-5 ovarian, 15.1 µM; in the assay with NCI-H23 lung, 11.5 µM. The TGI came to 10.6 µM with SK-MEL-28 melanoma, 5.92 µM in the assay with A498 renal, 5.01 µM in the assay on HL-60(TB) leukemia and 3.67 µM with UACC-257 melanoma.

(Values after PubChem BioAssay (NCI).)
